Four substances from paper PMC7711741 (Journal of medicinal chemistry, 2015) can be followed below.

One test has as its system huPA-H99Y. Description: Ki determination, chromogenic substrate S-2444. Conditions: versus peptide 2. Format: biochemical, human.
Another test deals with murine uPA (Mus musculus, UniProt P06869). Nature of the test: Ki determination, chromogenic substrate S-2444. The conditions noted are these: for fold increase in Ki for muPA: versus peptide 2. Type of test: biochemical.
The next test concerns the target human PK (Homo sapiens, UniProt P03952). Nature of the test: Ki determination, chromogenic substrate S-2302. The conditions noted are these: versus mupain-1–16. Format: biochemical.

Chain of murine uPA (P06869 21-433): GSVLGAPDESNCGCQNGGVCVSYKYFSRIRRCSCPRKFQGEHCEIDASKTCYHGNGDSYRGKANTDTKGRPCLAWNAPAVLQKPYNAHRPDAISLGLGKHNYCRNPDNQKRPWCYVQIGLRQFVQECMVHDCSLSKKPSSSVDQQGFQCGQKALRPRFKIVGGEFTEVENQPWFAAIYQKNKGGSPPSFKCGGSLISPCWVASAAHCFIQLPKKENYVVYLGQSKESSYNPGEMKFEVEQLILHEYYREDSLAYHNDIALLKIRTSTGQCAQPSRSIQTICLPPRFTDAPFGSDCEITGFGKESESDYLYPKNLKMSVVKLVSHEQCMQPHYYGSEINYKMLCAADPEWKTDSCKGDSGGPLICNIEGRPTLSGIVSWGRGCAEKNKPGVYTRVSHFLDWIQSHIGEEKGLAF
Chain of human PK (P03952 20-638): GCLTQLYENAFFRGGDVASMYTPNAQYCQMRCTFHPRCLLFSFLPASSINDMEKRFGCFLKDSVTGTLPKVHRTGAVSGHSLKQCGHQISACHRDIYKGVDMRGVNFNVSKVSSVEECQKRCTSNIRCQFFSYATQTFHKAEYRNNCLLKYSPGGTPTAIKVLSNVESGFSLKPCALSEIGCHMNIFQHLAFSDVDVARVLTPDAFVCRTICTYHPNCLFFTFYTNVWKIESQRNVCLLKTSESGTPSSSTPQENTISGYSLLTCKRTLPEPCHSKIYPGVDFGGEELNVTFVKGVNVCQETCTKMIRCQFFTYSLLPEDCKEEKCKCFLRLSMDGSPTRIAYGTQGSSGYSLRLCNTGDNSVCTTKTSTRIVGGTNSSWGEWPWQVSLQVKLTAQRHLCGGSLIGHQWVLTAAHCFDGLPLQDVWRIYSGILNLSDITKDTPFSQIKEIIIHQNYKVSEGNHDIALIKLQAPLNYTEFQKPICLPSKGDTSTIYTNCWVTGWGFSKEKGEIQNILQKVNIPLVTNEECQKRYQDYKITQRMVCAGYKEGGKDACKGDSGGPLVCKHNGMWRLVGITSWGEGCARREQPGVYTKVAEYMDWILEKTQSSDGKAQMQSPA

As for “CPAKS[L-3-(N-amidino-4-piperidyl)alanine]AL[KAc]C [peptide 4]”, the “fold increase in Ki for huPA-H99Y” value in the test with huPA-H99Y is given as 100 fold. In addition, the “fold increase in Ki for muPA” value at murine uPA is recorded as 100 fold.
Consider “CPAYS[L-3-(N-amidino-4-piperidyl)alanine]AL[KAc]C [peptide 2]”, for which the “fold weakened affinity to muPA” value at murine uPA (versus peptide 1) is given as “about 10 fold”.
Turning to “CPAYS[L-3-(N-amidino-4-piperidyl)alanine]-ALDC [peptide 1]”, the “fold lower Ki for inhibition of hPK” value at human PK is on record as 10 fold.
Take “CPARS[L-3-(N-amidino-4-piperidyl)alanine]AL[KAc]C [peptide 3]”: the “fold increase in Ki for huPA-H99Y” value in the test with huPA-H99Y came to 100 fold. Also, the “fold increase in Ki for muPA” value at murine uPA came to 100 fold.
